Results published in ChEMBL document CHEMBL4825746, “Combination Therapy Comprising A2A/A2B and PD-1/PD-L1 Inhibitors for Treating Cancer” (ACS Med Chem Lett, 2021).

What was measured:
Adenosine receptor A2b = target: T1, Adenosine receptor A2b (Homo sapiens, UniProt P29275); assay: Inhibition of human adenosine A2B receptor expressed in HEK293 cells assessed as reduction in NECA-stimulated cAMP accumulation preincubated for 30 mins followed by NECA stimulation for 60 mins by FRET assay; format: functional, cell-based
T1 sequence (P29275 whole entry): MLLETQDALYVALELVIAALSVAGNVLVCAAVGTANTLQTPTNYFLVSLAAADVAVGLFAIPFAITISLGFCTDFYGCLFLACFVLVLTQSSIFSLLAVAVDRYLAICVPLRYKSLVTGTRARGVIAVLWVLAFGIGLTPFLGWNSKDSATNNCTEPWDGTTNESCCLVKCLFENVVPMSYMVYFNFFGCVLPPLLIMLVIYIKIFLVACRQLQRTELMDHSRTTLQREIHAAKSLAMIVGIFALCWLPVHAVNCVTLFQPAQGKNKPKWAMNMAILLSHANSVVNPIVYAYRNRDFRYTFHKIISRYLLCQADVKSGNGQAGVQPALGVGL

Adenosine receptor A2a = Adenosine receptor A2a (Homo sapiens, UniProt P29274); assay: Displacement of L0058RED from adenosine A2A receptor (unknown origin) in Tag-lite labeled cells measured after 45 mins by fluorescence based HTRF assay; format: cell-based
Sequence of Adenosine receptor A2a (P29274 whole entry): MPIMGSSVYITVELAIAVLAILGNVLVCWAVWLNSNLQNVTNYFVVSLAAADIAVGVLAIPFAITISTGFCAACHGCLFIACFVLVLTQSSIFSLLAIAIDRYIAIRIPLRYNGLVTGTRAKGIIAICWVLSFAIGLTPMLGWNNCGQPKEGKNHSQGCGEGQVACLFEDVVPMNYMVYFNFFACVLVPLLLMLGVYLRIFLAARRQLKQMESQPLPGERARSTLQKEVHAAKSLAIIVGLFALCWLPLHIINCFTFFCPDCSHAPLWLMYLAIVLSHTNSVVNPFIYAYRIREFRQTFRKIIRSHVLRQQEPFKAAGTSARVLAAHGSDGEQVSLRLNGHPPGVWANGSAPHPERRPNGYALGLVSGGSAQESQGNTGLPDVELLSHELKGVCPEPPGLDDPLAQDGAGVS

| Compound | EC50 (Adenosine receptor A2b) [nM] | Ki (Adenosine receptor A2a) [nM] |
| --- | --- | --- |
| N#Cc1cccc(-c2cc3nc(C(O)c4c(F)cccc4F)nn3c(N)n2)c1F (configuration not stated) | ≤ 10 | ≤ 10 |
| N#Cc1cccc(-c2nc(N)n3nc(C(O)c4c(F)cccc4F)nc3c2C#N)c1F (configuration not stated) | ≤ 10 | ≤ 10 |
| Cc1ncoc1-c1c(-c2cccc(C#N)c2)nc(N)c2nc(C(N)c3c(F)cccc3F)nn12 (configuration not stated) | ≤ 10 | ≤ 10 |

Further lines, results first:

| EC50 (Adenosine receptor A2b) [nM] | Ki (Adenosine receptor A2a) [nM] | Compound |
| --- | --- | --- |
| ≤ 10 | ≤ 10 | Cn1nccc1-c1c(-c2cccc(C#N)c2F)nc(N)c2nn(Cc3ccccn3)nc12 |
| ≤ 10 | ≤ 10 | N#Cc1cccc(-c2nc(N)n3nc(Cc4cccnc4)nc3c2-c2ccncn2)c1 |
| ≤ 10 | ≤ 10 | N#Cc1cccc(-c2nc(N)c3nn(Cc4ncccc4F)nc3c2-c2ccncc2)c1 |
